Source: US20230000853A1, “PHARMACEUTICAL COMPOSITION CONTAINING NITROXOLINE, NITROXOLINE TABLET, PREPARATION METHOD THEREFOR AND USE THEREOF” (JIANGSU YAHONG MEDITECH CO., LTD., priority 2019, published 2023)

Assays:
[1] = Particle size determination by Malvern laser particle size analyzer, wet method; format: physicochemical; settings: pulverized raw material; dispersant 0.5% aqueous Tween 80
Protocol: The initial particle size D90 of the raw material nitroxoline or nitroxoline lysine salt was more than 100 μm. The raw material was pulverized with the mechanical mill to obtain the raw material having the particle size I, II, III or V in the following Table 1. The raw material was pulverized with the jet mill to obtain the raw material having the particle size IV in the following Table 1.
Determination was carried out on the Malvern laser particle size analyzer MS2000 by wet method according to the operation requirements of the instrument, the dispersant was an aqueous Tween 80 solution, and the mass fraction of Tween 80 in the aqueous solution was 0.5%.

[2] = Solubility and dissolution of nitroxoline in aqueous media; format: physicochemical; settings: 0.1 mol/L hydrochloric acid, water and phosphate buffer (pH 6.8) at 37° C.
Excerpt: In addition, the resulting nitroxoline tablets have uniform content, narrow variation range in hardness, and good fluidity and compressibility.

[3] = molecular target: T1, silence information regulator 2-related enzyme SIRT1 (Homo sapiens, UniProt Q96EB6); settings: vascular endothelial cells; cited from earlier work
T1 construct: host or cells: vascular endothelial cells
T1 sequence (Q96EB6 1-747): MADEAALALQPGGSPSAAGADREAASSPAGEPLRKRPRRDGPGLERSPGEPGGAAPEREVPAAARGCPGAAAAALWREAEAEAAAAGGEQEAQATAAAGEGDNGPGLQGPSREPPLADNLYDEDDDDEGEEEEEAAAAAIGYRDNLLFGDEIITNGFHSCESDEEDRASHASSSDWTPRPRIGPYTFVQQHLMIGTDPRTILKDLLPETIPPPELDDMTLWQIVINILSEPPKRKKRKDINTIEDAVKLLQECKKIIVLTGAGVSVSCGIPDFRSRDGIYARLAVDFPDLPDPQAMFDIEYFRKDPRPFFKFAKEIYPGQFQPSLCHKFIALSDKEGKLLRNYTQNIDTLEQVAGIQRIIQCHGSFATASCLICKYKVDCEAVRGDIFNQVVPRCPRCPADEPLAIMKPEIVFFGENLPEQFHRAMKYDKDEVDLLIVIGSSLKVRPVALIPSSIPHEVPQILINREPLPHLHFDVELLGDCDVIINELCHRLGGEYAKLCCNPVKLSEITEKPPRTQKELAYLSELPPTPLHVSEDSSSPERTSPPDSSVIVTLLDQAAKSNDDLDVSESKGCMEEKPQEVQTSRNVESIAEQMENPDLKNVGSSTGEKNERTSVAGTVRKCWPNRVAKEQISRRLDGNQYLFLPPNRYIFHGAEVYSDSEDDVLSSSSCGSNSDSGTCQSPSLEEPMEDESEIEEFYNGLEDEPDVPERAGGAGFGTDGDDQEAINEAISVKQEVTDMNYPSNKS

[4] = low solubility and high permeability; cited from earlier work
[5] = molecular target: T2, methionine aminopeptidase MetAP2 (Homo sapiens, UniProt P50579); settings: vascular endothelial cells; cited from earlier work
T2 construct: host or cells: vascular endothelial cells
T2 sequence (P50579 whole entry): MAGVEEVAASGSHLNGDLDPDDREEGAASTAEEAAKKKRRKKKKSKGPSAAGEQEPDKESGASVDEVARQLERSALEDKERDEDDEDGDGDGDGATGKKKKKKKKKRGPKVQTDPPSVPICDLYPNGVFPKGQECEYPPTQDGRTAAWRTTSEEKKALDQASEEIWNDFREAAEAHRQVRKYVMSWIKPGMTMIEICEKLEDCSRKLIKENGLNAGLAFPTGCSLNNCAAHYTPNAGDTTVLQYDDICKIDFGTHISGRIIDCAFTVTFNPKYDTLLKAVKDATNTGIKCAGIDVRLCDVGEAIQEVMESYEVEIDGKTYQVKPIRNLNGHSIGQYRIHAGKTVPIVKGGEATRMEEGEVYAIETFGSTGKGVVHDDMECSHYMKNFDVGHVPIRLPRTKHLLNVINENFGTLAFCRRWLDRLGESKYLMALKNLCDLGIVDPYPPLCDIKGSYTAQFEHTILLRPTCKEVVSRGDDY

| SMILES | Particle size D10 [1] | Particle size D50 [1] | Particle size D90 [1] | Solubility and dissolution [2] | Inhibition of SIRT1 [3] | BCS class [4] | Inhibition of MetAP2 [5] |
| --- | --- | --- | --- | --- | --- | --- | --- |
| NCCCC[C@H](N)C(=O)O.O=[N+]([O-])c1ccc(O)c2ncccc12 [V (Nitroxoline lysine salt), Nitroxoline lysine salt] | 3.67 μm | 10.88 μm | 43.29 μm | – | – | – | – |
| O=[N+]([O-])c1ccc(O)c2ncccc12 [I (Nitroxoline), Nitroxoline] | 5.66 μm | 33.60 μm | 99.31 μm | – | – | – | – |
| O=[N+]([O-])c1ccc(O)c2ncccc12 [IV (Nitroxoline), Nitroxoline] | 0.12 μm | 4.58 μm | 12.61 μm | – | – | – | – |
| O=[N+]([O-])c1ccc(O)c2ncccc12 [nitroxoline, 5-nitro-8-hydroxyquinoline] | – | – | – | low solubility and slow dissolution | inhibit | BCS class II | inhibit |
| O=[N+]([O-])c1ccc(O)c2ncccc12 [II (Nitroxoline), Nitroxoline] | 3.99 μm | 14.95 μm | 70.58 μm | – | – | – | – |
| O=[N+]([O-])c1ccc(O)c2ncccc12 [III (Nitroxoline), Nitroxoline] | 3.44 μm | 11.02 μm | 42.55 μm | – | – | – | – |
